From publication PMC6792352, “Limited Chemical Structural Diversity Found to Modulate Thyroid Hormone Receptor in the Tox21 Chemical Library” (Environmental Health Perspectives, 2019)
Where a name gives a salt, the structure may show the parent alone.

Experiment: in vitro
Settings: rat, gh3-tre-luc cells

Structure (SMILES)	CC50 at 24 h (AC50 (uM) modified / 1000) [µM]	further results
CCC(C)CO (stereo not shown) [2-Methyl-1-butanol]	> 100	–
Cc1ccc2c(c1[N+](=O)[O-])C(=O)c1ccccc1C2=O [2-Methyl-1-nitroanthraquinone]	38.7	–
CCCC(C)CO (stereo not shown) [2-Methyl-1-pentanol]	> 90	–
CC(C)(O)Cc1ccccc1 [2-Methyl-1-phenylpropan-2-ol]	> 90	–
CC(C)CO [2-Methyl-1-propanol]	> 90	–
CC(O)CC(C)(C)O (stereo not shown) [2-Methyl-2,4-pentanediol]	> 90	–
C/C=C(\C)C=O [2-Methyl-2-butenal]	> 90	–
CC=C(C)C#N [2-Methyl-2-butenenitrile]	> 90	–
CC(CO)(CO)[N+](=O)[O-] [2-Methyl-2-nitro-1,3-propanediol]	> 90	–
CC(C)(CO)[N+](=O)[O-] [2-Methyl-2-nitro-1-propanol]	> 90	–
CC(C)(C)S [2-Methyl-2-propanethiol]	> 90	–
C#CC(C)(C)O [2-Methyl-3-butyn-2-ol]	–	CC50 at 24 h (AC50 (uM) modified / 1000, Tox21_110001=Tox21_200094, viability, 1 nM T3 present, 24 h): > 90 µM
Cc1occc1S [2-Methyl-3-furanthiol]	> 90	–
Cc1c(N)cccc1[N+](=O)[O-] [2-Methyl-3-nitroaniline]	> 90	–
Cc1c(C(=O)O)cccc1[N+](=O)[O-] [2-Methyl-3-nitrobenzoic acid]	> 90	–
CSc1ccc(C(=O)C(C)(C)N2CCOCC2)cc1 [2-Methyl-4'-(methylthio)-2-morpholinopropiophenone]	–	CC50 at 24 h (AC50 (uM) modified / 1000, Tox21_110001=Tox21_301664, viability, 1 nM T3 present, 24 h): > 90 µM
COc1nc(C)nc(N)n1 [2-Methyl-4-amino-6-methoxy-s-triazine]	> 90	–
Cn1sccc1=O [2-Methyl-4-isothiazolin-3-one hydrochloride]	30.8	–
Cc1cc([N+](=O)[O-])ccc1N [2-Methyl-4-nitroaniline]	> 90	–
CC(C)(O)CCc1ccccc1 [2-Methyl-4-phenylbutan-2-ol]	> 90	–
CCCC1CCOC(C)S1 (stereo not shown) [2-Methyl-4-propyl-1,3-oxathiane]	> 90	–
Cc1nc2ccccc2c(=O)o1 [2-Methyl-4H,3,1-benzoxazin-4-one]	> 90	–
Cc1ccc([N+](=O)[O-])cc1N [2-Methyl-5-nitroaniline]	> 90	–
Cc1ccc([N+](=O)[O-])cc1S(=O)(=O)O [2-Methyl-5-nitrobenzenesulfonic acid]	> 90	–
Cc1cccc([N+](=O)[O-])c1C(=O)O [2-Methyl-6-nitrobenzoic acid]	> 90	–

Structure (SMILES)	CC50 at 24 h (AC50 (uM) modified / 1000) [µM]	further results
Cc1ccccc1N [2-Methylaniline]	–	CC50 at 24 h (AC50 (uM) modified / 1000, Tox21_110001=Tox21_201256, viability, 1 nM T3 present, 24 h): > 90 µM
Cc1ccc2c(c1)C(=O)c1ccccc1C2=O [2-Methylanthraquinone]	> 90	–
Cc1ccccc1C(N)=O [2-Methylbenzamide]	> 90	–
Cc1ccccc1S [2-Methylbenzenethiol]	> 70	–
Cc1ccccc1C(=O)O [2-Methylbenzoic acid]	> 90	–
Cc1nc2ccccc2s1 [2-Methylbenzothiazole]	> 90	–
CCC(C)C=O (stereo not shown) [2-Methylbutanal]	> 90	–
CCC(C)COC(C)=O (stereo not shown) [2-Methylbutyl acetate]	> 90	–
CCC(C)COC(=O)CC(C)C (stereo not shown) [2-Methylbutyl isovalerate]	> 90	–
C/C(C=O)=C\c1ccccc1 [2-Methylcinnamic aldehyde]	> 90	–
CC1OCCC1=O (stereo not shown) [2-Methyldihydrofuran-3(2H)-one]	> 90	–
C=C(C#N)CCC#N [2-Methylenepentanedinitrile]	> 90	–
Cc1ccco1 [2-Methylfuran]	> 90	–
CCCCC(C)C(=O)O (stereo not shown) [2-Methylhexanoic acid]	> 90	–
Cc1ccc2ccccc2c1 [2-Methylnaphthalene]	–	CC50 at 24 h (AC50 (uM) modified / 1000, Tox21_110001=Tox21_200839, viability, 1 nM T3 present, 24 h): > 90 µM
CCCC(C)C [2-Methylpentane]	> 90	–
CC(C#N)CCC#N (stereo not shown) [2-Methylpentanedinitrile]	–	CC50 at 24 h (AC50 (uM) modified / 1000, Tox21_110001=Tox21_201788, viability, 1 nM T3 present, 24 h): > 90 µM
CC(CCC(=O)O)C(=O)O (stereo not shown) [2-Methylpentanedioic acid]	> 90	–
CCCC(C)C(=O)O (stereo not shown) [2-Methylpentanoic acid]	> 90	–
Cc1ccc2c(ccc3ccccc32)c1 [2-Methylphenanthrene]	> 90	–
Cc1ccccc1CCO [2-Methylphenethyl alcohol]	> 90	–
CC(C)C=O [2-Methylpropanal]	> 90	–
CC(CO)CO [2-Methylpropane-1,3-diol]	> 100	–
CC(C)C#N [2-Methylpropanenitrile]	–	CC50 at 24 h (AC50 (uM) modified / 1000, Tox21_110001=Tox21_201929, viability, 1 nM T3 present, 24 h): > 90 µM
CC(C)C(=O)O [2-Methylpropanoic acid]	> 90	–

Structure (SMILES)	CC50 at 24 h (AC50 (uM) modified / 1000) [µM]	further results
Cc1cccc[n+]1[O-] [2-Methylpyridine 1-oxide]	> 90	–
Cc1ccccn1 [2-Methylpyridine]	> 90	–
CC1CCCO1 (stereo not shown) [2-Methyltetrahydrofuran]	> 90	–
CCCCCCCCCC(C)C=O (stereo not shown) [2-Methylundecanal]	> 90	–
NCCN1CCOCC1 [2-Morpholinoethylamine]	> 90	–
Oc1ccc2ccccc2c1 [2-Naphthalenol]	> 90	–
O=C(O)COc1ccc2ccccc2c1 [2-Naphthoxyacetic acid]	> 90	–
Nc1ccc2ccccc2c1 [2-Naphthylamine]	–	CC50 at 24 h (AC50 (uM) modified / 1000, Tox21_110001=Tox21_202091, viability, 1 nM T3 present, 24 h): > 90 µM
O=[N+]([O-])c1ccccc1-c1ccccc1 [2-Nitro-1,1'-biphenyl]	> 90	–
N#CSc1ccc(N)c([N+](=O)[O-])c1 [2-Nitro-4-thiocyanoaniline]	51.1	–
CC(=O)c1ccccc1[N+](=O)[O-] [2-Nitroacetophenone]	> 90	–
Nc1ccccc1[N+](=O)[O-] [2-Nitroaniline]	> 90	–
O=Cc1ccccc1[N+](=O)[O-] [2-Nitrobenzaldehyde]	> 90	–
NC(=O)c1ccccc1[N+](=O)[O-] [2-Nitrobenzamide]	> 90	–
O=C(O)c1ccccc1[N+](=O)[O-] [2-Nitrobenzoic acid]	> 90	–
O=C(Cl)c1ccccc1[N+](=O)[O-] [2-Nitrobenzoyl chloride]	> 90	–
O=[N+]([O-])c1ccccc1CCl [2-Nitrobenzyl chloride]	–	CC50 at 24 h (AC50 (uM) modified / 1000, Tox21_110001=Tox21_200821, viability, 1 nM T3 present, 24 h): > 90 µM
O=[N+]([O-])c1ccccc1Nc1ccccc1 [2-Nitrodiphenylamine]	> 90	–
O=[N+]([O-])CCO [2-Nitroethanol]	> 100	–
O=[N+]([O-])c1ccc2c(c1)Cc1ccccc1-2 [2-Nitrofluorene]	> 90	–
O=[N+]([O-])c1ccccc1O [2-Nitrophenol]	–	CC50 at 24 h (AC50 (uM) modified / 1000, Tox21_110001=Tox21_201442, viability, 1 nM T3 present, 24 h): > 90 µM
CC(C)[N+](=O)[O-] [2-Nitropropane]	–	CC50 at 24 h (AC50 (uM) modified / 1000, Tox21_110001=Tox21_200365, viability, 1 nM T3 present, 24 h): > 90 µM
Cc1ccccc1N=O [2-Nitrosotoluene]	> 90	–
Cc1ccccc1[N+](=O)[O-] [2-Nitrotoluene]	> 90	–
O=C1OC(=O)C2C3C=CC(C3)C12 (stereo not shown) [2-Norbornene-5,6-dicarboxylic anhydride]	> 90	–

Structure (SMILES)	CC50 at 24 h (AC50 (uM) modified / 1000) [µM]	further results
CCCCCCC(C)O (stereo not shown) [2-Octanol]	> 90	–
CCCCCC=CCC1CC(=O)OC1=O (stereo not shown) [2-Octen-1-ylsuccinic anhydride]	> 90	–
C/C=C/C(=O)CCCC [2-Octen-4-one]	> 90	–
CCCCCCCCCCC(CO)CCCCCCCC (stereo not shown) [2-Octyl-1-dodecanol]	> 90	–
O=C(O)CC(=O)C(=O)O [2-Oxobutanedioic acid]	> 90	–
CCCC(=O)C(=O)O [2-Oxopentanoic acid]	> 90	–
CCCC(C)=O [2-Pentanone]	> 90	–
CC/C=C/C#N [2-Pentenenitrile]	> 90	–
CCCCCC1=CCCC1=O [2-Pentyl-2-cyclopenten-1-one]	> 90	–
CCCCCc1ccco1 [2-Pentylfuran]	> 60	–
CC(CO)Oc1ccccc1 (stereo not shown) [2-Phenoxy-1-propanol]	> 90	–
OCCOc1ccccc1 [2-Phenoxyethanol]	> 90	–
C=CC(=O)OCCOc1ccccc1 [2-Phenoxyethyl acrylate]	> 90	–
OC1CCCCC1c1ccccc1 (stereo not shown) [2-Phenylcyclohexanol]	> 90	–
OCCc1ccccc1 [2-Phenylethanol]	> 50	–
CCC(C)C(=O)OCCc1ccccc1 (stereo not shown) [2-Phenylethyl 2-methylbutanoate]	> 90	–
CC(C)C(=O)OCCc1ccccc1 [2-Phenylethyl 2-methylpropanoate]	> 90	–
O=C(/C=C/c1ccccc1)OCCc1ccccc1 [2-Phenylethyl 3-phenylprop-2-enoate]	> 90	–
CC(=O)OCCc1ccccc1 [2-Phenylethyl acetate]	> 90	–
O=C(OCCc1ccccc1)c1ccccc1 [2-Phenylethyl benzoate]	> 90	–
CCCC(=O)OCCc1ccccc1 [2-Phenylethyl butanoate]	> 90	–
CCCCCC(=O)OCCc1ccccc1 [2-Phenylethyl hexanoate]	> 90	–
